The values below come from patent US10787423B2, “Piperazine and piperidine derivatives, their synthesis and use thereof in inhibiting VDAC oligomerization, apoptosis and mitochondria dysfunction” (THE NATIONAL INSTITUTE FOR BIOTECHNOLOGY IN THE NEGEV LTD., priority 2015, dated 2020).

Read-outs that look alike come from different tables or passages of the source.

Series [1] can be described thus: 6-hydroxydopamine-induced cell toxicity, XTT cell viability. The series is classed as cell-based. To be noted: human, 24 h, read-out: decrease in cell viability. On the procedure:
(§1) SHSY5Y (obtained from ATCC) were grown at 37° C. under an atmosphere of 95% air and 5% CO2 in DMEM medium supplemented with 10% fetal bovine serum, 2 mM L-glutamine, 1000 U/ml penicillin, and 1 mg/ml streptomycin until 60-70% of confluence. Further, the cells were incubated with increasing concentrations of 6-hydroxydopamine. After 24 hours, and cells viability was assayed using the XTT (2,3-bis-(2-methoxy-4-nitro-5-sulfophenyl)-2H-tetrazolium-5-carboxanilide) method, according to the supplier instructions. […] The 50% decrease in cell survival was obtained at about 50 μM of 6-hydroxydopamine.
(§2) Cell viability as assayed following 24 h incubation with different concentrations of 6-hydroxydopamine in the absence (closed squares (▪)) or in the presence of VBIT-12 (15 μM, closed circles (●)) is shown.
(§3) Similarly, cells that were incubated with increasing concentrations of VBIT-12 in presence of either 30 or 50 μM of 6-hydroxydopamine that decreased cell viability by […], respectively, remained viable after 24 hours of the incubation. Cells viability is charted in FIG. 24C versus the concentrations of VBIT-12. Closed squares (▪) indicate control group without 6-hydroxydopamine, open circles (◯) indicates cells' viability when exposed to 30 μM of the 6-hydroxydopamine, and closed circles (●) indicate cells viability at 50 μM of the 6-hydroxydopamine.
A general note: Tetrazolium assays rely on reduction of a dye to a coloured formazan, in cell work by metabolically active cells.

A further series concerns SHSY5Y cells. Described as above. In kind it is cell-based. To be noted: Homo sapiens, SH-SY5Y, 24 h, read-out: concentration giving 50% decrease in cell survival. How it is done:
as §1, §2, §3

Series [2] concerns Cyto c release from mitochondria. The experiment in a line: Selenite-induced Cytochrome c release from mitochondria in HEK-293 cells. The series is classed as cell-based. As to conditions: Homo sapiens, HEK293, compound 2 h then selenite 15 μM 4 h, means±SD (n=3). How it is done:
One of the ways cell apoptosis is activated is by release of Cytochrome c (Cyto c) from the mitochondria into cytosol. […] Cyto c released to the cytosol may be analyzed by immunoblotting using Cyto c-specific antibodies.
Cells treated with apoptosis inducers in the absence or presence of the tested compounds were harvested, washed twice with PBS, pH 7.4 and gently resuspended at 6 mg/ml in ice-cold buffer (100 mM KCl, 2.5 mM MgCl2, 250 mM sucrose, 20 mM HEPES/KOH pH 7.5, 0.2 mM EDTA, 1 mM dithiothreitol, 1 μg/ml leupeptin, […] and 0.1 mM PMSF) containing 0.025% digitonin and incubated for 10 min on ice. Samples were centrifuged at 10,000×g (relative centrifugal force—RCF) at 4° C. for 5 min to obtain supernatants (cytosolic extracts free of mitochondria) and pellet (fraction that contains mitochondria). Cytochrome c released to the cytosol was analyzed by immunoblotting using Cytochrome c-specific antibodies. Anti-VDAC1 and anti-GAPDH antibodies were used to verify that the cytosolic extracts are mitochondria-free.
c. Cytochrome c (Cyto c) release was determined as described above in Methods (Cytochrome c release from mitochondria). Briefly, to assess Cyto c release, cells were incubated on ice for 10 min with 0.025% digitonin, centrifuged, and the pellet (mitochondria—Mito) and supernatants (cytosol—Cytos) were subjected to SDS-PAGE and immunoblotting, using anti-Cyto c, antibodies. Anti-VDAC1 and anti-GAPDH antibodies were used to verify that the cytosolic extracts are mitochondria-free. The results of Cyto c release from the mitochondria as induced by selenite are presented as immunoblots, with the cytosolic and mitochondrial fractions confirmed by immunoblotting of GAPDH (glyceraldehyde-3-phosphate dehydrogenase) and VDAC1, respectively, in the FIG. 15d. The data are presented as percent inhibition. The results shown correspond to means±SD (n=3). The closed circle (●) indicates VBIT-4 (compound of Formula 1), the open circle (◯) indicates compound of Formula 10 (AKOS-022), and an open square (□) indicates VBIT-3 (compound of Formula 2).
d. […]

For a further series, the system named is HEK-293 cells. The experiment in a line: Selenite-induced apoptosis, annexin V-FITC/PI staining and FACS, HEK-293 cells. In kind it is cell-based. As to conditions: Homo sapiens, HEK293, compound 2 h then selenite 15 μM 4 h, means±SD (n=3). How it is done: The ability of the compounds of general Formulae (I), (Ia), (Ib), (Ic), (Id), (II) and (IIa) to inhibit apoptosis may be analyzed by annexin-V/propidium iodide (PI) staining and flow cytometry.
Cells, e.g. HeLa cells (2×10^5), untreated or treated with apoptosis-inducing reagents, were analyzed for apoptotic cell death using PI, annexin V-FITC and flow cytometer analysis. Cells were collected (1500×g for 10 min), washed, and resuspended in 200 μl binding buffer (10 mM HEPES/NaOH, pH 7.4, 140 mM NaCl, and 2.5 mM CaCl2). Annexin V-FITC was added according to the recommended Protocol (Enzo Life Sciences, Switzerland), and the cells were incubated in the dark for 15 min. Cells were then washed with binding buffer and resuspended in 200 μl binding buffer, to which PI was added immediately before flow cytometry analysis. At least 10,000 events were collected, recorded on a dot plot, and analyzed by the FACSCalibur™ flow cytometer software (BD Biosciences, Franklin Lakes, N.J.).
b. Additionally, the inhibition of selenite-induced apoptosis by the compounds as analyzed using annexin V-FITC/PI staining and FACS, presented in the FIG. 15c.
(§4) d. IC50 values of the tested compounds were derived from the obtained data. The results shown correspond to means±SD (n=3).

The next series deals with T1, purified VDAC1 (Rattus norvegicus, UniProt Q9Z2L0).
T1 construct: rat liver mitochondria (5 mg/ml) in 10 mM Tris-HCl, pH 7.2, were incubated with 2% LDAO; from tissue; host or cells: rat liver mitochondria
T1 sequence (Q9Z2L0 whole entry): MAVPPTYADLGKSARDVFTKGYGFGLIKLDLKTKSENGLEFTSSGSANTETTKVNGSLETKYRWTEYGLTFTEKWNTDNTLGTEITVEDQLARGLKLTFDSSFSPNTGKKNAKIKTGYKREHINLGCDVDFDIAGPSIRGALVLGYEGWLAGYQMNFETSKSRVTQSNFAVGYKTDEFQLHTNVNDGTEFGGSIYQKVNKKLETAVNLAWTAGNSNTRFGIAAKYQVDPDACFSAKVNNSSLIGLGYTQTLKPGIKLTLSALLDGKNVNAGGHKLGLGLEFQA
The experiment in a line: Microscale thermophoresis (MST) binding to purified VDAC1.

The next series has as its target VDAC1 (Homo sapiens, UniProt P21796). The experiment in a line: Selenite-induced VDAC1 oligomerization by EGS cross-linking and immunoblot in HEK-293 cells (Method B). In kind it is cell-based. Set-up: endogenous in cells; host or cells: HEK-293. On the procedure:
Appropriate test cells (2.5-3 mg/ml) in PBS, were harvested after the treatment and incubated with the cross-linking reagent EGS at a ratio of 100-300 μM for sample of 2-3 mg protein/ml concentration (pH 8.3) for 15 minutes. Protein concentration was determined according to Lowry assay. Samples (60-80 μg protein) were subjected to SDS-PAGE by a standard technique and immunoblotting was performed using anti-VDAC1 antibodies. Gels were electro-transferred onto nitrocellulose membranes for immuno-staining. The membranes were incubated with a blocking solution containing 5% non-fat dry milk and 0.1% Tween-20 in Tris-buffered saline, followed by incubation with monoclonal anti-VDAC1, anti-Cytochrome c, anti-AIF or anti-actin antibodies. Membranes were then incubated with HRP-conjugated anti-mouse or anti-rabbit IgG (1:10,000), serving as secondary antibodies. Antibody labeling was detected by chemiluminescence. To detect VDAC1 oligomers, membranes were treated with 0.1 M glycine, pH 2.0, prior to immunoblotting and washed several times with 0.1% Tween-20 in Tris-buffered saline. Quantitative analysis of immuno-reactive VDAC1 dimer, trimer and multimer bands was performed using FUSION-FX (Vilber Lourmat, France).
The closed circle (●) indicates VBIT-4 (compound of Formula 1), the open circle (◯) indicates compound of Formula 10, and an open square (□) indicates VBIT-3 (compound of Formula 2).
as §4
(In western blotting, separated proteins are transferred to a membrane and probed.)

Series [3] is described as follows: Brain penetration after oral gavage, HPLC/MS of brain extracts. In kind it is in vivo, C57BL/6 mice. To be noted: for concentration at 12 h / concentration at 24 h: C57BL/6, mouse, brain, oral, 50 mg/kg, mouse, read-out: Compounds in brain extract. How it is done: C57BL/6 mice ([…]) were used. The animals received treatments with either free compounds of Formulae 1 and 10, or encapsulated compounds, prepared according to the Examples 16 and 17. Doses as indicated in the Table 4 below were administered in phosphate-buffered saline (PBS) through an oral gavage. After 12 hours and 24 hours, randomly selected mice from each group were sacrificed, their brains collected and stored in −80° C. The concentrations of the compounds in the tissues were determined by HPLC/MS analysis.
Tissue samples were homogenized in phosphate-buffered saline solution, then diluted with acetonitrile to 50% v/v, centrifuged at 10,000 g for 10 minutes, and supernatants were analyzed. The compounds concentrations in the brain extracts were determined from calibration curves. The results were the averaged from 2 mice for each treatment group/time point.

A short description of series [4]: IC50 for several activities / effective range (activity not specified). To be noted: quoted for comparison with brain levels.
[5] abbreviates: 50 mg/kg in PLGA nanoparticles, oral gavage.
[6] abbreviates: 50 mg/kg oral gavage, free compound.

Chain of VDAC1 (P21796 whole entry): as the sequence (Q9Z2L0 whole entry) above, with N55T, V129M, S160A, V227I counted along it
Protocol for purified VDAC1: To obtain quantitative parameters of this interaction and derive a dissociation constant, e.g. a microscale thermophoresis (MST) interaction assay may be performed. In this manner, dissociation values are derived from the curves showing the affinity of the compounds of the invention to VDAC.
Briefly, rat liver mitochondria (5 mg/ml) in 10 mM Tris-HCl, pH 7.2, were incubated with 2% LDAO at 0° C. for 20 min, followed by centrifugation (30 min, 14,000 g) and the obtained supernatant was loaded onto a dry celite:hydroxyapatite (2:1) column. VDAC1 was eluted with a solution containing 2% LDAO, 10 mM Tris-HCl, pH 7.2, 50 mM NaCl, and 20 to 22 mM NaH2PO4, with VDAC1 detection by Coomassie blue staining. The VDAC1-containing fractions were dialyzed against 10 mM Tris-HCl, pH 7.2, and subjected to a second chromatography step on a carboxymethyl-cellulose (CMC) column from which VDAC1 was eluted with a solution containing 10 mM Tris-HCl, pH 7.2, 0.1% LDAO and 500 mM NaCl, detected as above. The VDAC1-containing fractions were collected and used for VDAC1 channel conductance and MST assays.
MST analysis was performed using a NanoTemper Monolith NT.115 apparatus. […]
Purified VDAC1 (133 nM), labeled using the NanoTemper fluorescent protein-labeling Kit BLUE (Nano Temper technologies, Munich, Germany), according to the manufactory instructions, was incubated with increasing concentrations of the following tested compounds: compound of Formula 10 (AKOS-022), compound of Formula 2 (VBIT-3), or racemic compound of Formula 1 (VBIT-4). After 20 min of incubation, the samples (3-5 μL) were loaded into MST-grade glass capillaries (Monolith NT Capillaries), and the thermophoresis process was measured using the Monolith-NT115 apparatus.
Fmax and Fmin represent the maximal and minimal fluorescence, respectively and F the fluorescence measured in the presence of the tested compound.
VDAC1 binding affinities of tested compounds were calculated from the MST measurements.

Regarding `NCCc1cc(O)c(O)cc1O` [6-hydroxydopamine, reference compound], in series [1] (30 μM 6-hydroxydopamine), the cytotoxicity at 24 h, 30 μM was 90%. Besides, the cytotoxicity at 24 h, 50 μM in series [1] (50 μM 6-hydroxydopamine) came out at 95%. In addition, the 6-hydroxydopamine concentration giving 50% decrease in cell survival in the series on SHSY5Y cells is about 50 µM.
What is called IC50 is the concentration at which inhibition is half-maximal. Take `O=C1CC(N2CCN(c3ccc(OC(F)(F)F)cc3)CC2)C(=O)N1c1ccc(Cl)cc1` (centres unmarked) [Formula 2, 1-(4-chlorophenyl)-3-(4-(4-(trifluoromethoxy)phenyl)piperazin-1-yl)pyrrolidine-2,5-dione]: the IC50 came to 6.6 ± 1.03 µM in series [2]; 7.5 ± 0.27 µM in the series on HEK-293 cells; 8.8 ± 0.56 µM at VDAC1 (HEK-293 cells, compound 2 h then selenite 15 μM 4 h, means±SD (n=3), read-out: VDAC1 oligomerization IC50). For the same compound, the Kd on purified VDAC1 (MST, purified VDAC1 133 nM, 20 min incubation, means±SD (n=3), read-out: VDAC1 binding affinities) was determined as 31.3 ± 1.7 µM.
Regarding `O=C1CC(N2CCC(Nc3ccc(OC(F)(F)F)cc3)CC2)C(=O)N1c1ccc(Cl)cc1` (centres unmarked) [Formula 10], the IC50 stood at 3.6 ± 0.4 µM in series [2], 3.4 ± 0.2 µM with HEK-293 cells, 1 µM in series [4] and 3.3 ± 0.18 µM at VDAC1. Besides, the Kd at purified VDAC1 was determined as 15.4 ± 2.9 µM. For the same compound, the results for the concentration at 12 h in series [3] (setting [5]) and in series [3] (setting [6]) were 4.36 ± 0.148 µM and 4.2 ± 0.714 µM, respectively. The concentration at 24 h in series [3] (setting [5]) came to 2.8 ± 1.19 µM; in series [3] (setting [6]), 1.24 ± 0.23 µM. Further, the brain penetration entry in series [3] (given orally, in solution or encapsulated in PLGA nano-particles) is “reached the brain”.
